Assay results from patent US20020115723A1, “Cysteine derivatives” (AJINOMOTO CO., INC., priority 1998, published 2002).

What was measured:
[1] = tested on: NF-κB; assay: Test on the function of inhibiting the activation of NF-κB induced by ultraviolet rays (gel shift assay); format: cell-based, human; conditions: for Inhibition ratio (%) of NF-κB activation: human epidermal cells, UVB 50 mJ/cm^2
Description: Test on the Function of Inhibiting the Activation of NF-κB Induced by Ultraviolet Rays.
After 18 hours had elapsed, the culture medium was substituted by a phenol red-free medium. The cells were exposed to ultraviolet rays (UVB: 50 mJ/cm^2) from an ultraviolet irradiator “Dermaray M-DMR-80” (ex Toshiba Medical Supply Co., Ltd.). After 4 to 5 hours had elapsed, the cells were collected, and the nucleoprotein was extracted therefrom in a manner known per se in the art. From the resulting nucleoprotein, the activated NF-κB was detected in accordance with the gel shift assay. The amount of the NF-κB was determined by measuring the radioactive value of the NF-κB band with the use of a bioimaging analyzer “BAS 2000” (ex Fuji Film Co., Ltd.).
The inhibition ratio of the activation of the NF-κB of the test compounds was calculated from the below-described formula (1).
Inhibition ratio of NF-κB activation (%)={1−(A1-A3)/(A2-A3)}×100 (1)
A1: radioactive value of the NF-κB upon addition of a test compound
A2: radioactive value of NF-κB when a test compound is not added
A3: radioactive value of NF-κB when a test compound is not added and is not exposed to ultraviolet rays.

[2] = tested on: AP-1; assay: Test on the function of inhibiting the AP-1 activation induced by ultraviolet rays (gel shift assay); format: cell-based, human; conditions: single compound
Description: Test on the Function of Inhibiting the AP-1 Activation Induced by Ultraviolet Rays.
In a similar manner to Test Example 1, a nucleoprotein was obtained. Then, the activated AP-1 was detected by the gel shift assay. The radioactive value of the AP-1 band was measured as in Test Example 1, whereby the amount of the AP-1 was determined. The AP-1 activation inhibiting ratio of the test compounds was calculated by the below-described equation (2). The results of the test compounds according to the present invention are shown below in Table 4a, while those of the comparative compounds are shown below in Table 4b.
AP-1 activation inhibiting ratio (%)={1−(B1-B3)/(B2-B3)}×100 (2)
B1: radioactive value of the AP-1 band upon addition of a test compound.
B2: radioactive value of the AP-1 band when a test compound is not added.
B3: radioactive value of the AP-1 band when a test compound is not added and is not exposed to ultraviolet rays.

[3] = tested on: Hairless mice (SKH-1); assay: Test on inhibiting function of wrinkles formation induced by ultraviolet rays (No. 2), Components (A) and (B) in combination; format: in vivo, mouse; design: scale not given here
Description: Hairless mice (SKH-1, female, 5-6 weeks old) were exposed to ultraviolet rays (UVB) three times/week (Monday, Wednesday and Friday) for 5 weeks, each at 50 to 100 mJ/cm^2 by using the above-described “Dermaray M-DMR-80” (ex Toshiba Medical Supply Co., Ltd.). The test compound (N,N′-diacetyl-L-cystine dimethyl ester) was dissolved in a mixed solvent of propylene glycol, ethanol and water, and was applied to the back portion of each of the mice in an amount of 100 μl, 30 to 60 minutes before exposure to ultraviolet rays, just after the completion of the exposure, and on the days free from exposure to ultraviolet rays (Sunday, Tuesday, Thursday and Saturday). From two weeks after the exposure had started, the wrinkles formed on the back portion of each mouse were evaluated once a week based on the below-described standards, and they were indicated as scores. In addition, the function of the inventive compound for inhibiting wrinkle formation induced by ultraviolet rays was judged based on the below-described judging standards.
Test on Inhibiting Function of Wrinkles Formation Induced by Ultraviolet Rays (No. 2)
Function of suppressing ultraviolet ray-induced wrinkles formation by the synergistic effects when Components (A) and (B) were used in combination, was judged in a similar manner to Test Example 2. Fifteen to twenty mice were divided into 4 groups, that is, a 1st group to which a mixed solvent of propylene glycol, ethanol and water was to be applied, a 2nd group to which a solution of only Component (A) dissolved in the above-described solvent was to be applied, a 3rd group to which a solution of only Component (B) dissolved in the above-described solvent was to be applied, and a 4th group to which a solution of both Components (A) and (B) dissolved in the above-described solvent was to be applied. An average score of each group was determined.

| Compound | Inhibition ratio (%) of NF-κB activation ([1]; addition concentration 0.01 mM) [%] | Inhibition ratio (%) of NF-κB activation ([1]; addition concentration 0.1 mM) [%] | also measured |
| --- | --- | --- | --- |
| COC(=O)[C@H](CCSSCC[C@H](NC(C)=O)C(=O)OC)NC(C)=O (racemic) [N,N′-diacetyl -DL-homocystine dimethyl ester] | 10 | 46 | – |
| Cc1c(C)c2c(c(C)c1O)CCC(C)(CCCC(C)CCCC(C)CCCC(C)C)O2 (racemic) [dl-α-tocopherol] | – | – | AP-1 activation Inhibiting ratio (%) ([2]; 10 μM): 5%; AP-1 activation Inhibiting ratio (%) ([2]; 100 μM): −1%; Wrinkle score (group average) ([3]; 5% alone, 2nd week): 2.0; Wrinkle score (group average) ([3]; 5% alone, 3rd week): 3.0; Wrinkle score (group average) ([3]; 5% alone, 4th week): 2.5; Wrinkle score (group average) ([3]; 5% alone, 5th week): 3.5 |
| CCCCC(CC)COC(=O)C=Cc1ccc(OC)cc1 (stereo not shown) [2-ethylhexyl p-methoxycinnamate] | – | – | AP-1 activation Inhibiting ratio (%) ([2]; 10 μM): −20%; AP-1 activation Inhibiting ratio (%) ([2]; 100 μM): 11%; Wrinkle score (group average) ([3]; 3% alone, 2nd week): 0.0; Wrinkle score (group average) ([3]; 3% alone, 3rd week): 0.5; Wrinkle score (group average) ([3]; 3% alone, 4th week): 1.5; Wrinkle score (group average) ([3]; 3% alone, 5th week): 0.5 |
| COc1ccc(C(=O)CC(=O)c2ccc(C(C)(C)C)cc2)cc1 [4-tert-butyl-4′-methoxybenzoylmethane] | – | – | AP-1 activation Inhibiting ratio (%) ([2]; 1 μM): −14%; AP-1 activation Inhibiting ratio (%) ([2]; 10 μM): 17% |
| O=C1O[C@H]([C@@H](O)CO)C(O)=C1O [L (+) ascorbic acid] | – | – | AP-1 activation Inhibiting ratio (%) ([2]; 0.1 mM): 1%; AP-1 activation Inhibiting ratio (%) ([2]; 1 mM): 0%; Wrinkle score (group average) ([3]; 5% alone, 2nd week): 1.0; Wrinkle score (group average) ([3]; 5% alone, 3rd week): 2.0; Wrinkle score (group average) ([3]; 5% alone, 4th week): 4.0; Wrinkle score (group average) ([3]; 5% alone, 5th week): 4.0 |
| CCOC(=O)[C@@H](N)CSSC[C@H](N)C(=O)OCC [L-cystine diethyl ester] | – | 50 | Inhibition ratio (%) of NF-κB activation ([1]; addition concentration 0.5 mM): >100% |
| CC(=O)N[C@@H](CSSC[C@H](NC(C)=O)C(=O)O)C(=O)O [N,N′ -diacetyl-L-cystine, N,N′-diacetyl-L-cystine, reference compound] | – | – | Inhibition ratio (%) of NF-κB activation ([1]; addition concentration 10 mM): 48%; Inhibition ratio (%) of NF-κB activation ([1]; addition concentration 30 mM): 67% |
| CCCC(=O)N[C@@H](CSSC[C@H](NC(=O)CCC)C(N)=O)C(N)=O [N,N′-di(n-butyryl)-L-cystine diamide] | 45 | 11 | – |
| CCCC(=O)N[C@@H](CSSC[C@H](NC(=O)CCC)C(=O)OC)C(=O)OC [N,N′-di(n-butyryl)-L-cystine dimethyl ester] | 52 | 79 | – |
| CCCCCCCCCC(=O)N[C@@H](CSSC[C@H](NC(=O)CCCCCCCCC)C(=O)OC)C(=O)OC [N,N′-di(n-decanoyl)-L-cystine dimethyl ester] | 56 | 68 | – |
| CCCCCCC(=O)N[C@@H](CSSC[C@H](NC(=O)CCCCCC)C(=O)OC)C(=O)OC [N,N′-di(n-heptanoyl)-L-cystine dimethyl ester] | 25 | 103 | – |
| CCCCCC(=O)N[C@@H](CSSC[C@H](NC(=O)CCCCC)C(=O)OC)C(=O)OC [N,N′-di(n-hexanoyl)-L-cystine dimethyl ester] | 43 | 77 | – |
| CCCCCCCC(=O)N[C@@H](CSSC[C@H](NC(=O)CCCCCCC)C(=O)OC)C(=O)OC [N,N′-di(n-octanoyl)-L-cystine dimethyl ester] | 33 | 91 | – |
| CCC(=O)N[C@@H](CSSC[C@H](NC(=O)CC)C(=O)OC)C(=O)OC [N,N′-di(n-propionyl)-L-cystine dimethyl ester] | 17 | 54 | – |
| CCCCC(=O)N[C@@H](CSSC[C@H](NC(=O)CCCC)C(N)=O)C(N)=O [N,N′-di(n-valeryl)-L-cystine diamide] | 8 | 53 | – |
| CCCCC(=O)N[C@@H](CSSC[C@H](NC(=O)CCCC)C(=O)OC)C(=O)OC [N,N′-di(n-valeryl)-L-cystine dimethyl ester] | 18 | 64 | – |
| CCOC(=O)[C@H](CSSC[C@H](NC(C)=O)C(=O)OCC)NC(C)=O [N,N′-diacetyl-L-cystine diethyl ester] | 37 | 107 | – |
| CC(=O)N[C@@H](CSSC[C@H](NC(C)=O)C(=O)OC(C)C)C(=O)OC(C)C [N,N′-diacetyl-L-cystine diisopropyl ester] | 19 | 48 | – |
| CCCCCCCCCCCC(=O)N[C@@H](CSSC[C@H](NC(=O)CCCCCCCCCCC)C(=O)OC)C(=O)OC [N,N′-dilauroyl-L-cystine dimethyl ester] | 52 | 59 | – |
| COC(=O)[C@H](CSC(C)=O)NC(C)=O [N,S-diacetyl-L-cystine methyl ester] | 20 | 31 | – |
| CCOC(=O)[C@H](CSSC[C@H](N)C(=O)O)NC(C)=O [N-acetyl-L-cystine ethyl ester] | 31 | 74 | – |
| CC(=O)N[C@@H](CSSC[C@H](N)C(=O)O)C(=O)OC(C)C [N-acetyl-L-cystine isopropylester] | 21 | 82 | – |
| COC(=O)[C@H](CSSC[C@H](N)C(=O)O)NC(C)=O [N-acetyl-L-cystine methyl ester] | 28 | 95 | – |
| CCCCCCCCCCCC(=O)N[C@@H](CSSC[C@H](N)C(=O)O)C(=O)OC [N-lauroyl-L-cystine methyl ester] | 36 | 43 | – |
| CCCCCCCCCCCC(=O)N[C@@H](CSSC[C@H](N)C(=O)O)C(=O)O [N-lauroyl-L-cystine] | – | 14 | Inhibition ratio (%) of NF-κB activation ([1]; addition concentration 0.5 mM): 86% |
| O=C(O)c1ccccc1O [Salicylic acid] | – | – | Wrinkle score (group average) ([3]; 5% alone, 2nd week): 2.0; Wrinkle score (group average) ([3]; 5% alone, 3rd week): 1.5; Wrinkle score (group average) ([3]; 5% alone, 4th week): 1.5; Wrinkle score (group average) ([3]; 5% alone, 5th week): 2.5 |
| CC1(C)[C@@H](O)CC[C@]2(C)[C@H]3C(=O)C=C4[C@@H]5C[C@@](C)(C(=O)O)CC[C@]5(C)CC[C@@]4(C)[C@]3(C)CC[C@@H]12 [glycyrrhetinic acid] | – | – | AP-1 activation Inhibiting ratio (%) ([2]; 10 μM): 2%; AP-1 activation Inhibiting ratio (%) ([2]; 100 μM): −104% |
| CC1(C)[C@@H](O[C@H]2O[C@H](C(=O)O)[C@@H](O)[C@H](O)[C@H]2O[C@@H]2O[C@H](C(=O)O)[C@@H](O)[C@H](O)[C@H]2O)CC[C@]2(C)[C@H]3C(=O)C=C4[C@@H]5C[C@@](C)(C(=O)O)CC[C@]5(C)CC[C@@]4(C)[C@]3(C)CC[C@@H]12 [glycyrrhizic acid] | – | – | AP-1 activation Inhibiting ratio (%) ([2]; 0.1 mM): 3%; AP-1 activation Inhibiting ratio (%) ([2]; 1 mM): −70% |
| S=C(S)N1CCCC1 [pyrrolidine dithiocarbamate, reference compound] | 9 | – | Inhibition ratio (%) of NF-κB activation ([1]; addition concentration 0.005 mM): −2%; NF-κB activation inhibiting function (in words) ([1]; summary of Tables 2a and 2b): did not exhibit the NF-κKB activation inhibiting function |
